One test deals with β2-AR/cAMP signaling. Briefly: FRET imaging of cAMP (ICUE3 probe) in hBSMCs after β2-AR stimulation. As to conditions: hBSMCs pre-treated 50 μM, 30 minutes; ISO 100 nM + CGP-20712A 100 nM. Format: cell-based, human. As for the experimental part:
Human bronchial smooth muscle cells (hBSMCs) were transfected with a plasmid encoding the FRET probe for cAMP, ICUE3 (described in the U.S. Pat. No. 8,236,523 B2) (2), by electroporation with a Nucleofector device (AMAXA, Gaithersburg, Md.), according to the manufacturer's protocol. Briefly, 1×10^6 cells were re-suspended in 100 μL of nucleofection solution (VPI-1004, AMAXA, Gaithersburg, Md.), mixed with 1 μg of pcDNA3-ICUE3 (described in U.S. Pat. No. 8,236,523 B2), and subjected to electroporation in a nucleofection apparatus of Amaxa Biosystems (Program A-033). Live cell imaging experiments were performed at 24 hours after transfection.
Measurements of cAMP levels were performed on human bronchial smooth muscle cells (hBSMCs) that express the FRET probe ICUE3, as described previously (2). Briefly, cells were maintained in a K^+-Ringer solution containing (in mmol/L) 121.6 NaCl, 5.4 KCl, 1.8 MgCl2, 1.8 CaCl2, 4 NaHCO3, 0.8 NaH2PO4, 5 D-glucose, 5 sodium pyruvate, 10 HEPES, at pH 7.4. […] FRET efficiency was calculated using the “Method 3” provided by the Leica wizard application for FRET imaging and sensitized emission, according to which: EA(i)=B/A, where EA(i) is the apparent FRET efficiency; A and B are the intensities of the CFP channel and FRET, respectively. […]

The subject of test [1] is ovalbumin (OVA)-induced asthma mice. The test is described as follows: Airway hyperresponsiveness (tidal volume) in ovalbumin-induced asthma model. The test is classed as in vivo, BALB/C mice. As to conditions: OVA-sensitized mice; 150 μg intra-tracheal, 30 minutes before methacholine; vs PBS or P1. As for the experimental part:
Ovalbumin (100 μg) (OVA, Sigma-Aldrich, St. Louis, Mo.), complexed with aluminum potassium sulfate (1 mg, alum) was administered intraperitoneally (i.p.) on days 1 and 14, and intra-nasally (i.n.) (50 μg OVA in 50 μl PBS) on days 14, 25, 26, and 27. Control mice received i.p. injections of alum and i.n. injections of PBS only. Airway hyperreactivity induced by inhaled methacholine was measured at 24 hours after the final dose of OVA (Day 28).
Method 2: Mice sensitized to ovalbumin were treated, by intra-tracheal instillation, with 70 μL of phosphate-buffered saline solution (PBS) containing vehicle or 150 μg of the Trojan peptide derived from PI3Kγ or equimolar amounts of P1 control peptide. Airway hyperresponsiveness was assessed at 30 minutes after the treatment according to a previously published protocol (6). […] The airway opening pressure (Pao), proximal to the endotracheal tube, and the pressure inside the chamber were measured with pressure transducers (Special Instruments, Digima Clic; Nordlingen, Germany). Gas flow was measured with a pneumotachograph (Special Instruments, Digima Clic; Nordlingen, Germany). Tidal volume was calculated as the integral of the flow signal. Variables of mechanical ventilation were recorded using the ICU-Lab software (KleisTEK Advanced Electronic Systems, Bari, Italy). […]

Another test concerns hBSMCs. The test is described as follows: Measurements of calcium transients (Indo-1) in hBSMCs. Format: cell-based, human. As to conditions: 50 μM, 30 minutes. The protocol:
Cells were washed with a Tyrode solution containing (in mmol/L): 5 HEPES, 154 NaCl, 4 KCl, 2 CaCl2, 1 MgCl2, 5.5 D-glucose, at pH 7.35 and placed on an inverted microscope. Cells were kept in Tyrode solution and treated with a KCl depolarizing solution containing (in mmol/L): 5 HEPES, 118 NaCl, 40 KCl, 2 CaCl2, 1 MgCl2, 5.5 D-glucose, at pH 7.35. Calcium transients were analyzed as the ratio of fluorescence signals measured at 400 nm and 490 nm following excitation of Indo-1-AM-loaded cells at 350 nm. Experiments were recorded and analyzed with Igor® Software, using the functions added by Jason Rothman (Neuromatic, www.thinkrandom.com).

We go through one sequence from patent US11352400B2, “PI3K gamma inhibitor peptide for treatment of respiratory system diseases” (Kither Biotech S.r.I., priority 2014, dated 2022).

As for “RQIKIWFQNRRMKWKKGKATHRSPGQIHLVQRHPPSEESQAF (fusion peptide comprising SEQ ID No.1 and SEQ ID No.3) [Trojan peptide derived from PI3Kγ]”, the “increase of cAMP accumulation following stimulation of β2-ARs” value in the test with β2-AR/cAMP signaling is 35%. Also, the “reduction of the tidal volume induced by methacholine” value in test [1] is recorded as “significantly attenuated”. In the test with hBSMCs (40 mM KCl depolarizing solution), the “influx of Ca2+ induced by KCl (through VOCCs)” value is reported as “completely abolished”. Further, the “maximum peak of Ca2+ transients induced by carbachol” value with hBSMCs (carbachol 10 μM, vs vehicle or P1) is “significantly lower”.
